Consider 12 compounds from US12649750B2, “Macrocyclic compounds, compositions, and methods of using thereof” (Sionna Therapeutics Inc., priority 2022, dated 2026).

One experiment deals with T1, NBD1 (Homo sapiens, UniProt P13569).
T1 construct: Purified recombinant NBD1 was produced using previously described methods; made in house
Put plainly: Aggregation analysis using differential static light scattering (DSLS), thermal stability of NBD1 (ΔTagg). Format: binding. To be noted: ΔTagg versus DMSO control, NBD1 0.2 mg/ml. The method, boiled down: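 Read-out is ΔTagg: the aggregation temperature, taken at the inflection of the light-scattering curve, less the average of DMSO control wells. Recombinant NBD1 (0.2 mg/ml, pH7.6 buffer containing 2 mM ATP) with test compound was heated at 1° C. per minute up to 70° C.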

In another experiment the target is T2, CFTR (Homo sapiens, UniProt P13569, DEL508-508).
T2 construct: Primary human bronchial epithelial cells from a ΔF508 homozygous CF donor; host or cells: primary human bronchial epithelial cells (CF-HBE), ΔF508 homozygous donor
T2 sequence (P13569 with tags, fused parts or gaps DEL508-508): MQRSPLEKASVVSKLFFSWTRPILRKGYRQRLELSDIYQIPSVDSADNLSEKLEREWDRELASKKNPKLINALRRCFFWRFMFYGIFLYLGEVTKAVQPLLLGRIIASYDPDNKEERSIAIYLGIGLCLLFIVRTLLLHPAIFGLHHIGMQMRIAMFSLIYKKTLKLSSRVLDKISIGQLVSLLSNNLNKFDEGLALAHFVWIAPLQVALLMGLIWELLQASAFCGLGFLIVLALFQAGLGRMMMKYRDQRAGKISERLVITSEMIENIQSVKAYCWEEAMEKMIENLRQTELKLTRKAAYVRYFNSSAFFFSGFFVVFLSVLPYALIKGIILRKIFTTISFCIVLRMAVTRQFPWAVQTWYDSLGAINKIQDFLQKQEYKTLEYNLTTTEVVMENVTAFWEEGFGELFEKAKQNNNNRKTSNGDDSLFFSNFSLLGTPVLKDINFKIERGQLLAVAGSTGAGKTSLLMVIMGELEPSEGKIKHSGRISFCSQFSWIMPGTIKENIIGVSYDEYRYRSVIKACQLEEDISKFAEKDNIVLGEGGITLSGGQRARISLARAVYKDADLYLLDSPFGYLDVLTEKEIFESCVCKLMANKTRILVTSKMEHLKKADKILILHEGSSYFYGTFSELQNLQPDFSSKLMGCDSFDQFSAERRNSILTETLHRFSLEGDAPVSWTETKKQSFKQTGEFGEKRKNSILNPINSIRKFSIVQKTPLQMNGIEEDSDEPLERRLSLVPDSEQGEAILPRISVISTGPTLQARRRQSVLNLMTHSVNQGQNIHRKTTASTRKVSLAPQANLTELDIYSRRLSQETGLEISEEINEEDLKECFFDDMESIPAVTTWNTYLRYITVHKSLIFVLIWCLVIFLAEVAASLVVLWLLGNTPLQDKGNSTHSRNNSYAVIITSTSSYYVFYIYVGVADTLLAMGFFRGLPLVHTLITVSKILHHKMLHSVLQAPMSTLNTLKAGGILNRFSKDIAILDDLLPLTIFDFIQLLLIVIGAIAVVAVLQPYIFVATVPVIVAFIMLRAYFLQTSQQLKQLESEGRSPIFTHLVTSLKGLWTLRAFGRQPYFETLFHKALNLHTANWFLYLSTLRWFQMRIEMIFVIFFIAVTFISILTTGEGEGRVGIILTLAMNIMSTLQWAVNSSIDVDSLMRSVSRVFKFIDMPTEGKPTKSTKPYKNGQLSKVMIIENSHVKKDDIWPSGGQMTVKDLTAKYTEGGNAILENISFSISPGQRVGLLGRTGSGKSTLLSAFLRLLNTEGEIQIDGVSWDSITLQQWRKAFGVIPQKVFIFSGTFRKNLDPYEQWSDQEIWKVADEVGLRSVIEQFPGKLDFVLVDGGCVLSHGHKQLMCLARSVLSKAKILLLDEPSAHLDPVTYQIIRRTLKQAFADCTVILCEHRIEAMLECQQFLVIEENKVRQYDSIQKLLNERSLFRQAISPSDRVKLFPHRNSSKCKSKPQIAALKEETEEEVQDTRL
As to the kind of experiment: TECC24 AUC fold over DMSO @10 μM, CFTR-mediated transepithelial chloride transport in CF-HBE cells. Format: cell-based. Conditions: test agent AUC divided by DMSO vehicle AUC, primary CF-HBE cells, ΔF508 homozygous donor, 48 hours incubation. In a few lines: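 Value is ratio of test-agent to DMSO AUC of equivalent transepithelial Cl− current, integrated from forskolin (10 μM) stimulation to CFTR inhibitor-172 (20 μM) block, with benzamil 10 μM present. CF-HBE (ΔF508/ΔF508) cultures had 48 h compound exposure at 10 μM, 36.5° C before recording.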

Structures are written as SMILES.

T1 sequence (P13569 423-646 limits assumed): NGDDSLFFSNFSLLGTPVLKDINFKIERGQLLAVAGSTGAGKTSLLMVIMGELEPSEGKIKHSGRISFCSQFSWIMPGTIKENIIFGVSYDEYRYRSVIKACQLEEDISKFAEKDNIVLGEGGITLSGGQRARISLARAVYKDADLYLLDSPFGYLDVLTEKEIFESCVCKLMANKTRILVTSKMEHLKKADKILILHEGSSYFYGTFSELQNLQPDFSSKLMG

Take `[2H]C([2H])([2H])C1(c2cccc(CC(C)C(=O)O)c2)COCC(C)(C)CS(=O)(=O)CCc2c(c(F)cc3[nH]ccc23)Oc2ccc(F)c(c2)-c2nc1nn2C` (single isomer, unassigned) [Compound 8A, 3-[3-[22,28-difluoro-3,10,10-trimethyl-12,12-dioxo-6-(trideuteriomethyl)-8,24-dioxa-12lambda6-thia-3,4,19,30-tetrazapentacyclo[23.3.1.12,5.015,23.016,20]triaconta-1(29),2(30),4,15,17,20,22,25,27-nonaen-6-yl]phenyl]-2-methyl-propanoic acid]: the “DSLS 3D (100 μM ΔT)” value on NBD1 was “C (a value greater than 10 °C and less than or equal to 25 °C is marked “C”)”. Also, the “TECC (AUC, 10 μM)” value on CFTR was “B (a value between 12-20 is marked “B”)”.

For `[2H]C([2H])([2H])C1(c2cccc(CC(C)C(=O)O)c2)COCC(C)(C)CS(=O)(=O)CCc2c(c(F)cc3[nH]ccc23)Oc2ccc(F)c(c2)-c2nc1nn2C` (single isomer, unassigned) [Compound 8B, 3-[3-[22,28-difluoro-3,10,10-trimethyl-12,12-dioxo-6-(trideuteriomethyl)-8,24-dioxa-12lambda6-thia-3,4,19,30-tetrazapentacyclo[23.3.1.12,5.015,23.016,20]triaconta-1(29),2(30),4,15,17,20,22,25,27-nonaen-6-yl]phenyl]-2-methyl-propanoic Acid], the “DSLS 3D (100 μM ΔT)” value on NBD1 is “A (an ΔTagg value less than or equal to 5 °C is marked “A”)”. Besides, the “TECC (AUC, 10 μM)” value on CFTR is listed as “A (a TECC value less than 12 is marked “A”)”.

For `[2H]C([2H])([2H])C1(c2cccc(CC(C)C(=O)O)c2)CCCC(C([2H])([2H])[2H])(C([2H])([2H])[2H])CS(=O)(=O)CCc2c(c(F)cc3[nH]ccc23)Oc2ccc(F)c(c2)-c2nc1nn2C` (single isomer, unassigned) [Compound 9A, 3-[3-[22,28-difluoro-3-methyl-12,12-dioxo-6,10,10-tris(trideuteriomethyl)-24-oxa-12lambda6-thia-3,4,19,30-tetrazapentacyclo[23.3.1.12,5.015,23.016,20]triaconta-1(29),2(30),4,15,17,20,22,25,27-nonaen-6-yl]phenyl]-2-methyl-propanoic Acid], the “DSLS 3D (100 μM ΔT)” value on NBD1 is “C (a value greater than 10 °C and less than or equal to 25 °C is marked “C”)”. Further, on CFTR, the “TECC (AUC, 10 μM)” value is listed as “A (a TECC value less than 12 is marked “A”)”.

On to `[2H]C([2H])([2H])C1(c2cccc(CC(C)C(=O)O)c2)CCCC(C([2H])([2H])[2H])(C([2H])([2H])[2H])CS(=O)(=O)CCc2c(c(F)cc3[nH]ccc23)Oc2ccc(F)c(c2)-c2nc1nn2C` (single isomer, unassigned) [Compound 9B, 3-[3-[22,28-difluoro-3-methyl-12,12-dioxo-6,10,10-tris(trideuteriomethyl)-24-oxa-12lambda6-thia-3,4,19,30-tetrazapentacyclo[23.3.1.12,5.015,23.016,20]triaconta-1(29),2(30),4,15,17,20,22,25,27-nonaen-6-yl]phenyl]-2-methyl-propanoic Acid], for which, on NBD1, the “DSLS 3D (100 μM ΔT)” value is “A (an ΔTagg value less than or equal to 5 °C is marked “A”)”. The “TECC (AUC, 10 μM)” value at CFTR is reported as “A (a TECC value less than 12 is marked “A”)”.

For `[2H]C([2H])([2H])C1(c2cccc(CC(C)C(=O)O)c2)CCCC(C)(C)CS(=O)(=O)CCc2c(c(F)cc3[nH]ccc23)Oc2ccc(F)c(c2)-c2nc1nn2C` (single isomer, unassigned) [Compound 10A, 3-[3-[22,28-difluoro-3,10,10-trimethyl-12,12-dioxo-6-(trideuteriomethyl)-24-oxa-12lambda6-thia-3,4,19,30-tetrazapentacyclo[23.3.1.12,5.015,23.016,20]triaconta-1(29),2(30),4,15,17,20,22,25,27-nonaen-6-yl]phenyl]-2-methyl-propanoic Acid], the “DSLS 3D (100 μM ΔT)” value on NBD1 was “C (a value greater than 10 °C and less than or equal to 25 °C is marked “C”)”. The “TECC (AUC, 10 μM)” value on CFTR is recorded as “A (a TECC value less than 12 is marked “A”)”.

Take `[2H]C([2H])([2H])C1(c2cccc(CC(C)C(=O)O)c2)CCCC(C)(C)CS(=O)(=O)CCc2c(c(F)cc3[nH]ccc23)Oc2ccc(F)c(c2)-c2nc1nn2C` (single isomer, unassigned) [Compound 10B, 3-[3-[22,28-difluoro-3,10,10-trimethyl-12,12-dioxo-6-(trideuteriomethyl)-24-oxa-12lambda6-thia-3,4,19,30-tetrazapentacyclo[23.3.1.12,5.015,23.016,20]triaconta-1(29),2(30),4,15,17,20,22,25,27-nonaen-6-yl]phenyl]-2-methyl-propanoic Acid]: the “DSLS 3D (100 μM ΔT)” value at NBD1 is “B (a value above 5 °C and less than or equal to 10 °C is marked “B”)”. For the same compound, the “TECC (AUC, 10 μM)” value on CFTR is recorded as “A (a TECC value less than 12 is marked “A”)”.

Consider `CC(Cc1cccc(C2(C)CCC(=O)C(C)(C)CS(=O)(=O)CCc3c(c(F)cc4[nH]ccc34)Oc3ccc(F)c(c3)-c3nc2nn3C)c1)C(=O)O` (single isomer, unassigned) [Compound 11A, 3-[3-[22,28-difluoro-3,6,10,10-tetramethyl-9,12,12-trioxo-24-oxa-12lambda6-thia-3,4,19,30-tetrazapentacyclo[23.3.1.12,5.015,23.016,20]triaconta-1(29),2(30),4,15,17,20,22,25,27-nonaen-6-yl]phenyl]-2-methyl-propanoic Acid], for which the “DSLS 3D (100 μM ΔT)” value at NBD1 is “C (a value greater than 10 °C and less than or equal to 25 °C is marked “C”)”. For the same compound, at CFTR, the “TECC (AUC, 10 μM)” value is “C (a value between 20 and 80 is marked “C”)”.

Regarding `CC(Cc1cccc(C2(C)CCC(=O)C(C)(C)CS(=O)(=O)CCc3c(c(F)cc4[nH]ccc34)Oc3ccc(F)c(c3)-c3nc2nn3C)c1)C(=O)O` (single isomer, unassigned) [Compound 11B, 3-[3-[22,28-difluoro-3,6,10,10-tetramethyl-9,12,12-trioxo-24-oxa-12lambda6-thia-3,4,19,30-tetrazapentacyclo[23.3.1.12,5.015,23.016,20]triaconta-1(29),2(30),4,15,17,20,22,25,27-nonaen-6-yl]phenyl]-2-methyl-propanoic Acid], on NBD1, the “DSLS 3D (100 μM ΔT)” value was “A (an ΔTagg value less than or equal to 5 °C is marked “A”)”. Besides, the “TECC (AUC, 10 μM)” value on CFTR is “A (a TECC value less than 12 is marked “A”)”.

Regarding `Cn1nc2nc1-c1cc(ccc1F)Oc1c(F)cc3[nH]ccc3c1CCS(=O)(=O)CC1(CCCC2(C)c2cccc(CCC(=O)O)c2)CC1` (single isomer, unassigned) [Compound 12A, 3-[3-(22,28-difluoro-3,6-dimethyl-12,12-dioxo-spiro[24-oxa-12lambda6-thia-3,4,19,30-tetrazapentacyclo[23.3.1.12,5.015,23.016,20]triaconta-1(29),2(30),4,15,17,20,22,25,27-nonaene-10,1′-cyclopropane]-6-yl)phenyl]propanoic Acid], the “DSLS 3D (100 μM ΔT)” value on NBD1 is “C (a value greater than 10 °C and less than or equal to 25 °C is marked “C”)”. In addition, the “TECC (AUC, 10 μM)” value on CFTR is “B (a value between 12-20 is marked “B”)”.

`Cn1nc2nc1-c1cc(ccc1F)Oc1c(F)cc3[nH]ccc3c1CCS(=O)(=O)CC1(CCCC2(C)c2cccc(CCC(=O)O)c2)CC1` (single isomer, unassigned) [Compound 12B, 3-[3-(22,28-difluoro-3,6-dimethyl-12,12-dioxo-spiro[24-oxa-12lambda6-thia-3,4,19,30-tetrazapentacyclo[23.3.1.12,5.015,23.016,20]triaconta-1(29),2(30),4,15,17,20,22,25,27-nonaene-10,1′-cyclopropane]-6-yl)phenyl]propanoic acid]: the “DSLS 3D (100 μM ΔT)” value on NBD1 was “A (an ΔTagg value less than or equal to 5 °C is marked “A”)”. Besides, the “TECC (AUC, 10 μM)” value on CFTR is “C (a value between 20 and 80 is marked “C”)”.

With `CC(Cc1cccc(C2(C)CCCC3(CC3)CS(=O)(=O)CCc3c(c(F)cc4[nH]ccc34)Oc3ccc(F)c(c3)-c3nc2nn3C)c1)C(=O)O` (single isomer, unassigned) [Compound 13A, 3-[3-(22,28-difluoro-3,6-dimethyl-12,12-dioxo-spiro[24-oxa-12lambda6-thia-3,4,19,30-tetrazapentacyclo[23.3.1.12,5.015,23.016,20]triaconta-1(29),2(30),4,15,17,20,22,25,27-nonaene-10,1′-cyclopropane]-6-yl)phenyl]-2-methyl-propanic Acid], the “DSLS 3D (100 μM ΔT)” value on NBD1 is “C (a value greater than 10 °C and less than or equal to 25 °C is marked “C”)”. Moreover, at CFTR, the “TECC (AUC, 10 μM)” value is reported as “B (a value between 12-20 is marked “B”)”.

For `CC(Cc1cccc(C2(C)CCCC3(CC3)CS(=O)(=O)CCc3c(c(F)cc4[nH]ccc34)Oc3ccc(F)c(c3)-c3nc2nn3C)c1)C(=O)O` (single isomer, unassigned) [Compound 13B, 3-[3-(22,28-difluoro-3,6-dimethyl-12,12-dioxo-spiro[24-oxa-12lambda6-thia-3,4,19,30-tetrazapentacyclo[23.3.1.12,5.015,23.016,20]triaconta-1(29),2(30),4,15,17,20,22,25,27-nonaene-10,1′-cyclopropane]-6-yl)phenyl]-2-methyl-propanic Acid], on NBD1, the “DSLS 3D (100 μM ΔT)” value is “A (an ΔTagg value less than or equal to 5 °C is marked “A”)”. Besides, the “TECC (AUC, 10 μM)” value on CFTR is “C (a value between 20 and 80 is marked “C”)”.
